# Earlier results as cited in US20100215723A1, “Wound Dressing with Antimicrobial Gauze and Bonding Agent” (priority 2009, published 2010).
# Key:
# aspergillus niger = details: stated as known
# pseudomonas aeruginosa = details: stated as known
substance,measurement,setting,value
Polyhexamethylene biguanide [PHMB],indicative MIC value,aspergillus niger,750 ppm
same,indicative MIC value,pseudomonas aeruginosa,100 ppm
